Assay results: PMC3138742 (PLoS ONE, 2011)

Key:
[1] = system: FVB-2/N^neu transgenic mouse model; test: Spontaneous breast cancer in FVB-2/N^neu transgenic mouse, tumor growth; assay type: in vivo; details: FVB-2/N^neu mice
From the text: (§1) Thirty eight- to forty four-week-old female FVB/N^neu mice were obtained from Shanghai Laboratory Animal Center. The animals were housed under specific pathogen-free conditions.

[2] = Body weights in xenograft studies; assay type: in vivo; details: nude mice, xenograft models, p.o. twice daily
Description: The mice were housed and maintained under specific-pathogen free (SPF) conditions. All animal procedures were performed according to the protocol approved by the Institutional Animal Care and Use Committee at Shanghai Institute of Materia Medica, Chinese Academy of Sciences (SIMM-AE-DJ-2010-01). Under sterile conditions, well-developed tumors were cut into 1-mm^3 fragments and transplanted s.c. into the right flank of nude mice using a trocar. When the tumor reached a volume reached 100 to 200 mm^3, the mice were randomly assigned into control and treatment groups. […] The sizes of the tumors were measured twice per week using microcalipers. The tumor volume (V) was calculated as follows: V = (length×width^2)/2. The body weights of the mice were observed simultaneously.

[3] = system: SK-OV-3 cells transfected with ErbB2 siRNA; test: SRB assay after ErbB2 siRNA transfection; assay type: cell-based, human; details: SK-OV-3, ErbB2 siRNA 50 nmol/L, AST1306 6.25 µmol/L (p<0.05) or 12.5 µmol/L (p<0.01)
From the text: Small interfering RNA (siRNA) against EGFR or ErbB2, as well as control siRNA, were designed and synthesized by Shanghai GenePharma Co. Ltd. One pair of ErbB2 siRNA (sequence: 5′ […] 3′), and two pairs of EGFR siRNA (#1 sequence: 5′ […] 3′; #2 sequence: 5′ […] 3′) were applied in this study. Different kind of siRNA (final concentration: 50 nmol/L) was transfected to SK-OV-3 cells with oligofectamine reagent (Invitrogen) according to the manufacturer's instruction.

[4] = system: EGFR phosphorylation in NIH3T3-EGFR T790M/L858R cells; test: Western blot of EGFR phosphorylation; assay type: cell-based; details: 6 h, immunoblotting
Description: (§2) Cell viability was determined using sulforhodamine B assay. IC50 values were determined based on the results of three independent experiments. […] Whole-cell lysates were assayed for total EGFR and phosphorylation of EGFR by immunoblotting. […] Cell viability was determined using sulforhodamine B assay.

NIH3T3 parental cells = test: Cell proliferation SRB assay; assay type: cell-based; details: 72 h, compared with NIH3T3-EGFR T790M/L858R
From the text: SK-OV-3, BT474, MDA-MB-468, Calu-3, A-549, NCI-H23, NCI-H1975 and NIH3T3 cells were obtained from the American Type Culture Collection (Rockville, MD). HO-8910 cells were obtained from the cell bank of the Chinese Academy of Sciences. MCF-7 cells were obtained from the Japanese Foundation of Cancer Research. NIH3T3 cells that overexpressed EGFR T790M/L858R mutant (NIH3T3-EGFR T790M/L858R) were constructed and maintained in our laboratory. All cell lines were maintained in strict accordance with the supplier's instructions and established procedures.
as §2, with “immunoblotting. A representative anti-GAPDH immunoblot is shown as a loading control.” for “immunoblotting.”
Cell proliferation was evaluated using the SRB (Sulforhodamine B) assay as previously described. Briefly, cells were seeded into 96-well plates and grown for 24 h. […] After cells were air-dried, protein-bound dye was dissolved in 150 μL of 10 mmol/L Tris base for 5 min and measured at 515 nm using a multiwell spectrophotometer (VERSAmax, Molecular Devices). […] The IC50 value was obtained by the Logit method and was determined from the results of at least 3 independent tests.

A549 cells = test: Cell proliferation SRB assay; assay type: cell-based; details: Homo sapiens, A549, 72 h, range given for four cell lines together, read-out: IC50 (antiproliferative)
[5] = Body weights in FVB-2/N^neu transgenic mouse study; assay type: in vivo; details: FVB-2/N^neu mice, oral twice daily for 3 wk
From the text: as §1

[6] = system: phosphorylation of EGFR and downstream pathways in NCI-H1975 cells; test: Western blot of EGF-induced phosphorylation; assay type: cell-based, human
Description: (§3) The tyrosine kinase activities were determined using enzyme-linked immunosorbant assay (ELISA). The serine/threonine kinase activities were detected by Caliper Mobility Shift Assay on EZ Reader (Caliper Life Sciences, MA) according to the instruction.
as §2

[7] = system: EGFR and ErbB2 phosphorylation in SK-OV-3 xenograft tumors; test: Pharmacodynamic effect in tumor extracts (Western blot); assay type: in vivo, nude mice; details: SK-OV-3 tumors, single dose 100 mg/kg
Description: Tumors were harvested at indicated times (n = 3 per time point) after treatment, immediately frozen in liquid nitrogen, and then homogenized in 500 µL protein extraction solutions (SBS Genetech, Shanghai, China). Tumor extracts were subjected to SDS-PAGE followed by immunoblotting.
Body weights of the nude mice were measured concurrently (B). […] Tumors were harvested at the indicated times after treatment and immediately frozen in liquid nitrogen. Western blot analysis was performed to determine the levels of phosphorylated EGFR and ErbB2.

[8] = Pharmacokinetics after single oral dose; details: dog, in vivo; dogs, single oral dose 90 mg/kg; unpublished data
[9] = Pharmacokinetics after single oral dose; details: rat, in vivo; rats, single oral dose 90 mg/kg; unpublished data
[10] = system: NIH3T3-EGFR T790M/L858R cells; test: Cell proliferation SRB assay; assay type: cell-based; details: 72 h
Description: as §3, §2

SMILES: C=CC(=O)Nc1ccc2ncnc(Nc3ccc(OCc4cccc(F)c4)c(Cl)c3)c2c1 [AST1306]
- tumor growth ([1]; oral twice daily for 3 wk): dramatic suppression of tumor growth
- tumors after treatment for 11 d ([1]; oral twice daily, 11 d): tumors almost completely disappeared
- body weights during treatment [2]: no obvious differences
- sensitivity to antiproliferative effect after ErbB2 knockdown [3]: significantly more resistant
- inhibition of EGFR phosphorylation [4]: effectively inhibited EGFR phosphorylation
- inhibition of cell growth (NIH3T3 parental cells): much less potent
- IC50 (A549 cells): 6.2 to 7.5 µM
- decrease of body weights during treatment [5]: less than 20%
- inhibition of phosphorylation of EGFR and downstream pathways [6]: blocked phosphorylation of EGFR and downstream pathways
- time to evident inhibition of EGFR and ErbB2 activation in tumors [7]: ≤ 2 h
- half-life [8]: < 2.3 h
- half-life [9]: < 3.6 h
- inhibition of cell growth [10]: significant, concentration-dependent inhibition
